# Results published in patent publication US20160051526A1, “The Local Treatment of Inflammatory Ophthalmic Disorders” (CRESSET BIOMOLECULAR DISCOVERY LTD, priority 2013, published 2016).
# Columns and labels:
# male C57BL/6 mice = assay: Murine model of endotoxin induced uveitis; assay type: in vivo, mouse; details: 0.1 μg intravitreal co-injected with LPS; about 15 hours after endotoxin; FIG. 5
# Experimental: The efficacy of locally applied Nalidixic acid as a potential treatment for uveitis was explored. Experimental uveitis was induced in male C57BL/6 mice (n=5 animals per group) by the intravitreal injection of the endotoxin lipopolysaccharide (LPS 0.5 ng/ml) co-injected with either vehicle (phosphate buffered saline) or Nalidixic acid at a final concentration of 0.1 μg into alternate eyes. The other eye acting as control. The inflammatory response in this model is characterised by invasion of inflammatory cells and in particular invasion of neutrophils into the retina peaks at approximately 15 hours after endotoxin treatment at which time the animals were culled. Retinas from the animals were dissected and digested into a single cell suspension. Cell numbers from retinal tissue were measured by fluorescence-activated cell sorting (FACS) analysis.
# [1] = tested on: Human derived cord mast cells; assay: Inhibition of histamine release from human mast cells; assay type: cell-based; details: IgE challenged human cord derived mast cells, 5 min incubation; FIG. 1
# Experimental: Protocol: Human derived cord mast cells were cultured using the following method. Commercially available CD34^+ stem cells were cultured for […] in StemSpan (StemCell Technologies, Grenoble, France) serum-free medium supplemented with 100 ng/ml human SCF, 50 ng/ml IL-6 and 1 ng/ml IL-3, and 100 μg/ml penicillin/streptomycin (Peprotech, London, UK). After eight weeks, cells were cultured in StemSpan with 10% FCS. The cells were passaged into new medium every week. Cells were used for experiments between 11 and 18 weeks following confirmation by microscopic examination, c-kit and FcRε1 staining (by FACS), of mast cell morphology. For assessment of drug effects, Nalidixic acid was incubated for 5 min with aliquots of 2×10^5 CDMCs (cord derived mast cells) cultured in 10% FCS medium. A commercially-available enzyme immunoassay was used to detect and quantify histamine released in the supernatant (SPI bio, Strasbourg, France). The assay was conducted following the manufacturer's standard protocols. A standard curve ranging from 0.39-50 nM histamine was prepared using the reagent provided and the optical density was then read within 60 min in a microplate reader (at 405 nm). In some cases, the total cell content of histamine was established by freeze thawing of cells prior to challenge.
# [2] = tested on: Human cord derived mast cells; assay: Release of Annexin-A1 from human mast cells (ELISA); assay type: cell-based; details: increasing concentrations, conditioned medium, FIG. 3
# Experimental: Human cord derived mast cells were cultured using the methodology described in Example 1. Anx-A1 protein levels in conditioned medium were determined by ELISA. Briefly, 96-well flat-bottomed ELISA plates (Greiner, Gloucestershire, UK) were coated with 1 μg anti-Anx-A1 mAb 1B in bicarbonate buffer (pH 9.6) and incubated overnight at 4° C. After washing in the bicarbonate buffer, potentially uncoated sites were blocked with 100 μL of PBS containing 1% BSA for 1 h at room temperature. Sample aliquots (100 μL) or Anx-A1 standard solutions (prepared in 0.1% Tween-20 in PBS; concentration ranging between 10 and 0.001 μg/mL) were added for 1 h at 37° C. After extensive washing in PBS/Tween-20, 100 μL of a polyclonal rabbit anti-human Anx-A1 serum (Zymed, Invitrogen, Paisley, UK; diluted 1:1000 in PBS/Tween-20) was added (1 h at 37° C.) prior to incubation with donkey anti-rabbit 1 gG conjugated to alkaline phosphatase (1:1000; Sigma). The colour was developed by addition of 100 μL p-nitrophenyl phosphate (1 mg/mL in bicarbonate buffer, pH 9.6). Absorbance was read at 405 nm (with a 620-nm reference filter) in a microplate reader (TitertekTM, Vienna, Austria). Anx-A1 levels in the study samples were read against the standard curve and expressed as ng/ml.
# [3] = tested on: Human cord derived mast cells; assay: Inhibition of Prostaglandin D2 release from human mast cells; assay type: cell-based; details: IgE challenged human cord derived mast cells; FIG. 2
# Experimental: Human cord derived mast cells were cultured using the methodology described in Example 1. A commercially-available enzyme immunoassay (Cayman Chemical, Michigan, USA) was used to detect and quantify PGD2 released in the supernatant. The assay was conducted following the manufacturer's standard protocols. A standard curve ranging from 78-10,000 pg/ml PGD2 was prepared using the reagent provided and the optical density was then read within 60 min in a microplate reader (at 405 nm).
# phosphatase PP2A = assay: Inhibition of the phosphatase PP2A; assay type: biochemical; details: statement in summary, no method or data given
# Mice (Balb/C strain) = assay: Murine model of allergic conjunctivitis (ragweed pollen); assay type: in vivo, mouse; details: 40 μl of a 2% solution twice daily to the eye
# Experimental: Mice (Balb/C strain) were sensitised to ragweed pollen by injection of the extract mixed with alum into the hind paw. A control group was immunised with alum alone. Five animals were used in each group.
# Eleven days after the initial immunisation with ragweed pollen extract the mice were challenged daily with Ragweed pollen by application to the eye (150 mg/ml antigen) and dosed twice daily (prior and after challenge with ragweed extract) with either Phosphate buffered saline (PBS, control) or 40 μl of a 2% solution of Nalidixic acid. All applications were to the left eye with the right eye acting as a control.
# Conjunctivitis was assessed on the 10th day 1 hour after the final application of the ragweed antigen. This assessment was performed by an operator unaware of the dosing protocol for the animals.
# Clinical scores of each group were compared statistically using the non-parametric Kruskal-Wallis test with Dunns multiple comparison test correction applied (FIG. 4).
# In addition, histological analysis of sections of the conjunctiva was used to assess the number of migrating eosinophils into the tissue, a key measure of the inflammatory process.
structure (smiles),measurement,setting,value
CCn1cc(C(=O)O)c(=O)c2ccc(C)nc21 [Nalidixic acid],invading neutrophils in retinal tissue (FACS),male C57BL/6 mice,clear reduction in invading neutrophils
same,inhibition of the inflammatory mediator histamine (% net histamine release),[1],dose related inhibition
same,Annexin-A1 released from human mast cells,[2],increase
same,inhibition of the inflammatory prostanoid PGD2 release,[3],dose related inhibition
same,inhibition of the phosphatase PP2A,phosphatase PP2A,potent inhibitors
same,clinical scores of conjunctivitis,"Mice (Balb/C strain); assessed 10th day, 1 hour after final ragweed challenge, FIG. 4",significant attenuation of the development of conjunctivitis
same,number of migrating eosinophils in conjunctival tissue (histology),Mice (Balb/C strain); p<0.001 vs immunised PBS control,no migrating eosinophils
